Laboratory results as given in patent publication US7371742B2, “Porphyrin derivatives for photodynamic therapy” (Institut Curie, priority 2001, dated 2008).
Where two headings read alike, the source gives them in different places.

Tests used:
[1] = system: RBY-79 (indifferently named Y-79) cells; test: RBY-79 (Y79) cell cytotoxicity / photocytotoxicity
From the text: (§1) Columns HT29 and Y79 (═RBY79), without light, correspond to the cytotoxic activity.

[2] = system: human colic adenocarcinoma cell line HT29; test: HT29 cell survival (MTT assay) after 24 h incubation, with or without light irradiation; details: for Photocytotoxicity HT 29, concentration giving 50%: 50% effect; for cytotoxic for HT29 (in words): remark of the inventors
Description: (§2) HT29 cells were cultivated in Dulbecco's MEM supplemented with 10% fetal calf serum (FCS). Cells from log-phase culture were seeded in 24-microwell plates (1 mL-5×10^4 cells/well) and kept at 37° C. in a water-jacketed incubator for 2 days under an air/CO2 atmosphere (5% CO2). Tested compounds, in DMSO solution, were added under the minimum volume (5 μL) to reach a concentration ranging from 0.1 to 10 μg/mL. Controls cells received 5 μL of DMSO free of dye. Plates were incubated 24 h, then medium was removed and the cells were washed twice with phosphate buffered saline (PBS) before addition of fresh medium free of drug and irradiation with visible light using a home made “light box” giving a fluence of 3.8 mW/cm^2 on the whole visible spectrum. Irradiation with red light was carried out using the same device fitted with an orange filter (0% T at 520 nm and 80% T at 590 nm) leading to a fluence of 2 mW/cm^2.
(§3) Plates were reincubated for 3 days before evaluation of the cell survival using the MTT assay (T. Mosmann, “Rapid calorimetric assay for cellular growth and survival. Application to proliferation assays”. J. Immunol. Methods 65,55-63,1983) using 30 min incubation with 100 μg well of 3-[4,5-dimethylthiazol-2-yl]-2,5-diphenyl tetrazolium bromide (MTT, Sigma). After removal of the medium, formazan crystals were taken up with 100 μL of DMSO and absorbance at 540 ni was measured with a Bio-Rad microplate reader (model 450); survival was expressed as % of untreated controls.

[3] = system: FT-1 cells; test: FT-1 cell photocytotoxicity; assay type: cell-based, human; details: for Photocytotoxicity FT-1, Red: Red light, concentration not given
[4] = system: A549; test: A549 photocytotoxicity (entries inside Table B cells); assay type: cell-based; details: A549 named inside the cell; concentration not given
[5] = system: tumoral cells; test: Antitumoral photodynamic activity in general (remarks on Tables B and C); assay type: cell-based, human; details: for active when activated by light towards tumoral cells (in words): under appropriate irradiation
From the text: The main results for antitumoral effects are reported in Table B, showing the rate of photocytotoxicity. The higher the percentage, the higher the antitumnoral or antiviral effect.
Concerning the antitumoral activity, the compounds obtained by the inventors are active, under appropriate irradiation indicated towards tumoral cells in which these derivatives are able to accumulate.

[6] = system: human colic adenocarcinoma cell line HT29
Description: as §2, §3

[7] = system: RBY-79 (indifferently named Y-79) cells
From the text: as §1

[8] = system: L-1210 cells; test: Cytotoxicity L-1210 (no light), cytostatic activity; assay type: cell-based, human; details: for Cytotoxicity L-1210 (no light), cell marked Red: cell prints 'Red', concentration not given
From the text: Column L1210 corresponds to the cytostatic activity.

[9] = patient, cited from earlier work; for period of photosensitivity: after treatment
[10] = read-out: Y79 IC50 (μM) With 2J/cm^2, irradiation with filter (0% T at 520 nm, 80% T at 590 nm), 3.5 mW/cm^2, 10 min
[11] = read-out: Y79 IC50 (μM) without light, without light (cytotoxic activity)
[12] = without light, remark of the inventors
[13] = read-out: HT 29 IC50 (μM) with 2J/cm^2, irradiation with filter (0% T at 520 nm, 80% T at 590 nm), 3.5 mW/cm^2, 10 min
[14] = read-out: HT 29 IC50 (μM) without light, without light (cytotoxic activity)
[15] = with light, compared with its cytotoxicity

Compound: 5,10,15-Tri(3-O-β-D-glucosylphenyl)-2,3-chlorin and 5,10,15-tri(3-O-β-D-glucosylphenyl)-7,8-chlorin [Compound 55]
- IC50 [1, 10]: 3.7 ± 1.8 µM
- IC50 [1, 11]: 8 ± 7 µM
- cytotoxic for Y79 (in words) [1, 12]: cytotoxic
- Photocytotoxicity HT 29, Red ([2]; Red light, concentration not given): Red, 0%
- IC50 [2, 13]: 5.7 ± 3 µM
- IC50 [2, 14]: > 15 µM
- Photocytotoxicity FT-1, Red [3]: 25%
- Photocytotoxicity A549 [4]: A549, 10%

Compound: 5,10,15-tri(para-O-diethyleneglycoloxyphenyl)-20-phenylporphyrin [Compound 75]
- biological activities (in words) ([5]; non glycosylated analogue compared with compound 67): totally inactive
- IC50 [1, 10]: 1.2 µM
- IC50 [1, 11]: 4.5 µM
- IC50 [2, 13]: 4.3 µM
- IC50 [2, 14]: 6.5 µM

Compound: 5, 10, 15-tri(meta-hydroxyphenyl)-20-phenyl)-2,3-chlorin and 5,10,15-tri(3-hydroxyphenyl)-7,8-chlorin [Compound 77-78]
- IC50 [1, 10]: 0.6 ± 0.1 µM
- IC50 [1, 11]: > 10 µM
- cytotoxic for HT29 (in words) [6]: cytotoxic
- IC50 [2, 13]: 1.5 ± 0.07 µM
- IC50 [2, 14]: 6.6 ± 0.9 µM

Compound: OC[C@H]1O[C@H](Sc2c(F)c(F)c(-c3c4nc(c(-c5c(F)c(F)c(F)c(F)c5F)c5ccc([nH]5)c(-c5c(F)c(F)c(F)c(F)c5F)c5nc(c(-c6c(F)c(F)c(F)c(F)c6F)c6ccc3[nH]6)C=C5)C=C4)c(F)c2F)[C@@H](O)[C@@H](O)[C@@H]1O [Compound 30]
- Photocytotoxicity RBY-79, % at 2 μg/ml [7]: 90% 2 μg/ml

Compound: OC[C@H]1O[C@@H](OCCOc2cccc(-c3c4nc(c(-c5cccc(OCCO[C@@H]6O[C@H](CO)[C@@H](O)[C@H](O)[C@H]6O)c5)c5ccc([nH]5)c(-c5cccc(OCCO[C@@H]6O[C@H](CO)[C@@H](O)[C@H](O)[C@H]6O)c5)c5nc(c(-c6cccc(OCCO[C@@H]7O[C@H](CO)[C@@H](O)[C@H](O)[C@H]7O)c6)c6ccc3[nH]6)CC5)C=C4)c2)[C@H](O)[C@@H](O)[C@@H]1O [Compound 58]
- Photocytotoxicity FT-1, Red [3]: Red 0%
- Cytotoxicity L-1210 (no light), cell marked Red [8]: Red, 0, A549%

Compound: OC[C@H]1O[C@@H](Oc2cccc(-c3c4nc(c(-c5cccc(O[C@@H]6O[C@H](CO)[C@@H](O)[C@H](O)[C@H]6O)c5)c5ccc([nH]5)c(-c5cccc(O[C@@H]6O[C@H](CO)[C@@H](O)[C@H](O)[C@H]6O)c5)c5nc(c(-c6ccccc6)c6ccc3[nH]6)C=C5)C=C4)c2)[C@H](O)[C@@H](O)[C@@H]1O [Compound 60]
- Photocytotoxicity FT-1 ([3]; concentration and light not given): 0%
- Photocytotoxicity A549 [4]: A549, 20%

Compound: OC[C@H]1O[C@@H](OCCOc2cccc(-c3c4nc(c(-c5cccc(OCCO[C@@H]6O[C@H](CO)[C@@H](O)[C@H](O)[C@H]6O)c5)c5ccc([nH]5)c(-c5cccc(OCCO[C@@H]6O[C@H](CO)[C@@H](O)[C@H](O)[C@H]6O)c5)c5nc(c(-c6cccc(OCCO[C@@H]7O[C@H](CO)[C@@H](O)[C@H](O)[C@H]7O)c6)c6ccc3[nH]6)C=C5)C=C4)c2)[C@H](O)[C@@H](O)[C@@H]1O [Compound 61]
- Photocytotoxicity FT-1, Red [3]: Red 0%
- Cytotoxicity L-1210 (no light), cell marked Red [8]: Red, 0%
- Photocytotoxicity A549 [4]: A549, 0%

Compound: OC[C@H]1O[C@@H](SCc2ccc(-c3c4nc(c(-c5ccc(CS[C@@H]6O[C@H](CO)[C@@H](O)[C@H](O)[C@H]6O)cc5)c5ccc([nH]5)c(-c5ccc(CS[C@@H]6O[C@H](CO)[C@@H](O)[C@H](O)[C@H]6O)cc5)c5nc(c(-c6ccc(CS[C@@H]7O[C@H](CO)[C@@H](O)[C@H](O)[C@H]7O)cc6)c6ccc3[nH]6)C=C5)C=C4)cc2)[C@H](O)[C@@H](O)[C@@H]1O [Compound 65, TPP(p-CH2-S-β-GluOH)4]
- cytotoxic for Y79 (in words) [7]: cytotoxic
- RBY-79, concentration giving 50% with light or not ([1]; 50% effect, with light or not): 50% at 5 μg/ml
- Y79 IC50 (μM) With 2J/cm^2 ([1]; irradiation with filter (0% T at 520 nm, 80% T at 590 nm), 3.5 mW/cm^2, 10 min): Inactive
- IC50 [1, 11]: 4.7 µM
- IC50 [2, 13]: 5.2 µM
- IC50 [2, 14]: > 10 µM
- Cytotoxicity L-1210 (no light), % at 10 μg/ml [8]: 16%

Compound: OC[C@H]1O[C@H](SCCOCCOc2ccc(-c3c4nc(c(-c5ccc(OCCOCCS[C@H]6O[C@H](CO)[C@@H](O)[C@H](O)[C@@H]6O)cc5)c5ccc([nH]5)c(-c5ccc(OCCOCCS[C@H]6O[C@H](CO)[C@@H](O)[C@H](O)[C@@H]6O)cc5)c5nc(c(-c6ccccc6)c6ccc3[nH]6)C=C5)C=C4)cc2)[C@@H](O)[C@@H](O)[C@@H]1O [Compound 68, TPP(p-O-DEG-S-α-Mann)3]
- Photocytotoxicity RBY-79, concentration giving 50% ([1]; 50% effect, with light): 1 µg/mL
- IC50 [1, 10]: 1 ± 0.5 µM
- IC50 [1, 11]: 6 ± 2 µM
- Photocytotoxicity HT 29, concentration giving 50% ([2]; with light): 50% 4 μg/ml
- IC50 [2, 13]: 5.8 ± 3 µM
- IC50 [2, 14]: > 10 µM
- Cytotoxicity L-1210 (no light), % at 10 μg/ml ([8]; 10 μg/ml, no light): 0% 10 μg/ml

Compound: TPC(m-O-β-GluOH)4 [Compound 54]
- IC50 [1, 10]: 3 ± 1.4 µM
- IC50 [1, 11]: 3.9 ± 0.1 µM
- cytotoxic for Y79 (in words) [1, 12]: cytotoxic
- IC50 [2, 13]: 4.4 ± 0.1 µM
- IC50 [2, 14]: > 15 µM
- Photocytotoxicity FT-1, Red [3]: 20%
- Photocytotoxicity A549 [4]: 0, A549, 0%

Compound: TPP F4(p-S-β-GluOH)3 [Compound 26]
- active when activated by light towards tumoral cells (in words) [5]: active
- Photocytotoxicity RBY-79, concentration giving 50% ([1]; 50% effect, with light): 3.3 µg/mL
- IC50 [1, 10]: 2.2 µM
- IC50 [1, 11]: > 10 µM
- Photocytotoxicity HT 29, concentration giving 50% ([2]; with light): 50% 2 μg/ml
- IC50 [2, 13]: 1.7 µM
- IC50 [2, 14]: 6.5 µM
- cytotoxic for HT29 (in words) ([2]; without light): cytotoxic
- Cytotoxicity L-1210 (no light), % at 10 μg/ml ([8]; 10 μg/ml, no light): 20% 10 μg/ml

Compound: TPP(p-OC3-S-α-MannOH)3 [Compound 24]
- active when activated by light towards tumoral cells (in words) [5]: active
- Photocytotoxicity RBY-79, concentration giving 50% ([1]; 50% effect, with light): 6.5 µg/mL
- IC50 [1, 10]: 4.7 µM
- IC50 [1, 11]: 7.5 µM
- phototoxic for Y79 (in words) [1, 15]: less phototoxic
- cytotoxic for Y79 (in words) [1, 12]: cytotoxic
- Photocytotoxicity HT 29, concentration giving 50% ([2]; with light): 4.6 µg/mL
- IC50 [2, 13]: 3.2 µM
- IC50 [2, 14]: 3.2 µM
- phototoxic for HT29 (in words) [2, 15]: less phototoxic
- cytotoxic for HT29 (in words) ([2]; without light): cytotoxic
- Cytotoxicity L-1210 (no light), concentration giving 50% ([8]; 50% effect, no light): 50% 14 μg/ml

Compound: TPP(p-OC3-S-β-GluOH)3 [Compound 23]
- Photocytotoxicity RBY-79, concentration giving 50% ([1]; 50% effect, with light): 3 µg/mL
- IC50 [1, 10]: 6.5 µM
- IC50 [1, 11]: > 10 µM
- Photocytotoxicity HT 29, concentration giving 50% ([2]; with light): 6 µg/mL
- IC50 [2, 13]: 11 µM
- IC50 [2, 14]: 13 µM
- Cytotoxicity L-1210 (no light), % at 10 μg/ml ([8]; 10 μg/ml, no light): 0% 10 μg/ml

Compound: benzoporphyrin derivative monoacid ring A [Verteporfin]
- period of photosensitivity [9]: one day

Compound: porfimer sodium [Photofrin ®, reference compound]
- time the drug stays in the skin after treatment ([9]; makes sensitive to strong light): approximately 30 days
- period of photosensitivity [9]: several weeks
- IC50 ([1]; read-out: Y79 IC50 With 2J/cm^2, estimated concentration, with 2J/cm^2, estimated for mean molecular weight 1178.55 dimer form): 2.6 µM
- IC50 ([1]; read-out: Y79 IC50 without light, estimated concentration, without light, estimated for mean molecular weight 1178.55 dimer form): 3.9 µM
- concentration at which cytotoxic for the Y79 cells ([1]; remark of the inventors): more than 3,9 μM
- Y79 IC50 With 2J/cm^2, in μg/ml ([1]; with 2J/cm^2): 3 µg/mL
- Y79 IC50 without light ([1]; without light): 4.6 µg/mL
- cytotoxic for Y79 (in words) [1, 12]: cytotoxic
- IC50 ([2]; read-out: HT 29 IC50 with 2J/cm^2, estimated concentration, with 2J/cm^2, estimated for mean molecular weight 1178.55 dimer form): 5.1 µM
- HT 29 IC50 with 2J/cm^2, in μg/ml ([2]; with 2J/cm^2): 6 µg/mL
- HT 29 IC50 without light, in μg/ml ([2]; without light): Inactive for 10 μg/ml
